The values below are quoted from earlier work in US10220017B2, “Liquid pharmaceutical compositions comprising SGLT-2 inhibitors” (Boehringer Ingelheim Vetmedica GmbH, priority 2015, dated 2019).

For this data set the following is noted: n-octanol/water; values taken from http://www.chemicalize.org/.
On to `CCO` [ethanol], for which the log10P is listed as −0.16.

With `OCC(O)CO` [propane-1,2,3-triol], the log10P is listed as −1.84.

With `CC(O)CO` (stereo not drawn) [propane-1,2-diol], the log10P is on record as −0.79.
